The source of these data is patent publication US20040009921A1, “Methods and compositions for the treatment of cancer” (Allergan, Inc., priority 2002, published 2004).

One test has as its system hepatocarcinoma. The following applies: experimental and clinical studies; cited from earlier work.
The next test has as its system RXRα. The test can be described thus: Western blotting of RXRα protein in HEK293 cells and stable lines. In kind it is cell-based, human. The following applies: HEK293 with β-catenin and RXRα, FIG. 4B. How it is done: (§1) (A) Western blotting analysis of HEK293 cells transfected with a combination of expression vectors for LacZ (2 μg), V5-tagged β-catenin(4 μg), and Flag-tagged RXRα (2 μg) as indicated below the gels. […] RXRα protein was measured using an HRP-conjugated mouse monoclonal antibody against the Flag tag. (B) Western blotting analysis of stable cell line RBC that overexpresses both β-catenin and RXRα. […] (C) Western blotting analysis of stable cell line CAT that overexpresses only β-catenin. […] Endogenous and overexpressed β-catenin were detected using a rabbit polyclonal antibody as indicated by “Total” whereas overexpressed β-catenin was analyzed using a mouse monoclonal antibody against the V5 tag. Endogenous and overexpressed RXRα were detected by a rabbit polyclonal antibody against RXRα, whereas overexpressed RXRα was determined by an HRP-conjugated mouse monoclonal antibody against the Flag tag. (D) Western blotting analysis of HEK293 cells transfected with a fixed amount of β-catenin (4 μg) plus an increasing amount of RXRα as indicated at the top. […] (E) Western blotting analysis of HEK293, CV-1, and Hela cells transfected with 2 μg of RXRα and 4 μg of wild type or mutant β-catenin. α. […] (F) Northern blotting analysis of RBC cells using β-catenin as a probe.
(§2) FIG. 4 Receptor and ligand specificity in degradation of β-catenin by retinoid receptors. HEK293 cells transfected with expression vectors for β-catenin (4 μg) and RXRs (2 μg) or RARs (2 μg) and treated with ligands at concentrations indicated at the top of each gel. Protein levels were detected by Western blotting as shown in this figure. β-catenin and RARs were detected by HRP-conjugated antibodies against their V5 tag. RXRs were detected by HRP-conjugated antibodies against their Flag tag. […] In this experiment, the amount of expression vectors for RXRα and RARs used in transfection was 1 μg.
(§3) HEK293 cells were seeded at a density of […] per dish were seeded into 100-mm dishes and cultured overnight in DMEM containing 10% FBS. Cells were transfected with 1-4 μg of various cDNA or parental expression vectors (8 μg of DNA in total) using Lipofectamine®. Five hours after transfection, cells were fed with fresh culture media DMEM containing 10% charcoal-treated FBS with vehicle DMSO or retinoids prepared in DMSO. After a given time of treatment, cells were harvested and lysed in a buffer containing 1% Nonidet® P-40, 30 mM Tris-HCl (pH7.4), 0.5 mM EDTA (pH 8.0), 150 mM NaCl, 10% glycerol, 1 mM sodium orthovanadate, 40 mM NaF, 0.5 mM phenylmethylsulfonyl fluoride (PMSF) and a cocktail of protease inhibitors (Merck).
(§4) Total cell lysates were homogenized by passing through a QIAshredder® (Qiagen) and cleared from insoluble materials by centriftigation at 12,000 g. Protein concentration was determined using a Bradford total protein assay kit (Bio-Rad). Total cell lysates were electrophoresed using a 4-12% SDS-PAGE gradient gel and transferred to either nitrocellulose or PVDF filter membranes. The membranes were blocked with 10% non-fat milk reconstituted from dairy milk powder in phosphate-buffered saline (PBS) containing 0.1% Tween®-20 (PBST). The membranes were incubated with primary antibodies at room temperature for 2 hours or at 4° C. for overnight. After the removal of unbound antibodies, membranes were incubated with horseradish peroxidase-conjugated secondary antibodies for one hour at room temperature and washed five times with PBST.
On the technique in general: A western blot detects proteins with antibodies after separation by electrophoresis.

The next test deals with β-catenin. The test can be described thus: Western blotting of β-catenin protein in HEK293 cells and stable lines RBC, CAT, RmBC. The test is classed as cell-based, human. The following applies: for β-catenin stability / degradation, ligand applied alone: HEK293 with β-catenin and RXRα, FIG. 4B. How it is done:
as §1, §2, §3, §4

“Also recorded” adds a separate entry of the source.

`CC1=C(/C=C/C(C)=C\C=C\C(C)=C\C(=O)O)C(C)(C)CCC1` [9-cis retinoic acid]: in the test with hepatocarcinoma, the development of hepatocarcinoma result is on record as “suppress the development of hepatocarcinoma”.
With `C/C(=C\c1ccc(C(=O)O)cc1)c1ccc2c(c1)C(C)(C)CCC2(C)C` [TTNPB, reference compound], the “RXRα stability, ligand applied alone” value with RXRα is “no effect”. Also, the β-catenin protein entry in the test on β-catenin (HEK293 overexpressing RARα) was “a slight decrease”. The “β-catenin stability / degradation, ligand applied alone” value in the test with β-catenin was “have no effects; also recorded: no effect”.
Regarding `CCc1ccc(C2=CC(C)(C)Sc3ccc(C#Cc4ccc(C(=O)O)cc4)cc32)cc1` [compound 194310, reference compound], the “RXRα stability, ligand applied alone” value with RXRα is reported as “no effect”. Also, in the test with β-catenin (HEK293 co-expressing RXRα and RARs, with AGN 4204), the “antagonism of the effect of AGN 4204 on degradation of RARs and β-catenin” value is reported as “not antagonized”. The “β-catenin stability / degradation, ligand applied alone” value with β-catenin was “no effect”; with β-catenin (listed as AGN194310) it was “have no effects”.
